# Experimental data reported in patent US20020137929A1, “1 - (3-heterocyclylphenyl) isothiourea, -isourea, -guanidine and -amidine herbicidal agents” (Intellectual Property Department, BASF Aktiengesellschaft, priority 1998, published 2002).
# How the values were obtained:
# AMBEL (Ragweed, Common) [1] = assay: Postemergence herbicidal evaluation; format: in vivo, Ambrosia artemisifolia; details: postemergence
# How it was run: (§1)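 Herbicidal effect was judged by eye on a 0–9 scale covering stand, vigor, deformity, size and chlorosis, compared with controls, four to five weeks after seedlings about two weeks old were sprayed (40 psi, ~0.0156–0.500 kg/ha).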
# CASOB (Sicklepod) [2] = assay: Postemergence herbicidal evaluation; format: in vivo, Cassia obtusifolia; details: postemergence
# How it was run: as §1
# [3] = test system: CHEAL (Lambsquarters, Common); assay: Postemergence herbicidal evaluation; format: in vivo, Chenopodium album; details: postemergence
# How it was run: as §1
# [4] = test system: IPOHE (Morningglory, Ivyleaf); assay: Postemergence herbicidal evaluation; format: in vivo, Ipomoea hederacea; details: postemergence
# How it was run: as §1
# ECHCG (Barnyardgrass) = assay: Postemergence herbicidal evaluation; format: in vivo, Echinochloa crus-galli; details: postemergence
# How it was run: as §1
# [5] = test system: GLXMAW (Soybean, Williams); assay: Postemergence herbicidal evaluation; format: in vivo, Glycine max, (L.) Merr. cv Williams; details: postemergence
# How it was run: as §1
# [6] = test system: TRZAWR (Wheat, Winter, cv Riband); assay: Postemergence herbicidal evaluation; format: in vivo, Triticum aestivum; details: postemergence
# How it was run: as §1
# ABUTH (Velvetleaf) = assay: Preemergence herbicidal evaluation; format: in vivo, Abutilon theophrasti; details: rated 4-5 weeks after treatment
# How it was run: (§2)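 Steps: mix seeds into potting soil; plant atop ~1 inch soil; spray compound in aqueous acetone (~0.0156-0.500 kg/ha equivalent); maintain in greenhouse with watering; rate visually 0-9 versus control at 4-5 weeks.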
# AMBEL (Ragweed, Common) [7] = assay: Preemergence herbicidal evaluation; format: in vivo, Ambrosia artemisifolia; details: rated 4-5 weeks after treatment
# How it was run: as §2
# CASOB (Sicklepod) [8] = assay: Preemergence herbicidal evaluation; format: in vivo, Cassia obtusifolia; details: rated 4-5 weeks after treatment
# How it was run: as §2
# [9] = test system: CHEAL (Lambsquarters, Common); assay: Preemergence herbicidal evaluation; format: in vivo, Chenopodium album; details: rated 4-5 weeks after treatment
# How it was run: as §2
# [10] = test system: IPOHE (Morningglory, Ivyleaf); assay: Preemergence herbicidal evaluation; format: in vivo, Ipomoea hederacea; details: rated 4-5 weeks after treatment
# How it was run: as §2
# [11] = test system: GLXMAW (Soybean, Williams); assay: Preemergence herbicidal evaluation; format: in vivo, Glycine max, (L.) Merr. cv Williams; details: rated 4-5 weeks after treatment
# How it was run: as §2
# ORYSAT (Rice, Tebonnet) = assay: Preemergence herbicidal evaluation; format: in vivo, Oryza sativa, (L.) Tebonnet; details: rated 4-5 weeks after treatment
# How it was run: as §2
# MOOVA (Monochoria) = assay: Preemergence weed control under flooded paddy conditions; format: in vivo, Monochoria vaginalis; details: rated 3-4 weeks after treatment
# How it was run: (§3)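 Ratings on a 0-9 visual scale cover stand, vigor, malformation, size, chlorosis and overall appearance relative to a control, taken three to four weeks post-treatment. Application was into flood water over freshly sown silt loam at roughly 0.0313 to 0.500 kg/ha.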
# [12] = test system: SAGPY (Arrowhead (Pygmaea)); assay: as above; format: in vivo, Sagittaria pygmaea; details: rated 3-4 weeks after treatment
# How it was run: as §3
smiles,measurement,setting,value
Cn1c(C(F)(F)F)cc(=O)n(-c2cc(N=C3SCC(=O)N3Cc3ccccc3)c(Cl)cc2F)c1=O [Compound 26],AMBEL herbicidal rating,"AMBEL (Ragweed, Common) [1]; rate 0.0156 kg/ha",9.0
same,AMBEL herbicidal rating,"AMBEL (Ragweed, Common) [1]; rate 0.0313 kg/ha",8.0
same,AMBEL herbicidal rating,"AMBEL (Ragweed, Common) [1]; rate 0.0625 kg/ha",9.0
same,CASOB herbicidal rating,CASOB (Sicklepod) [2]; rate 0.0156 kg/ha,0.0
same,CASOB herbicidal rating,CASOB (Sicklepod) [2]; rate 0.0313 kg/ha,0.0
same,CASOB herbicidal rating,CASOB (Sicklepod) [2]; rate 0.0625 kg/ha,0.0
same,CHEAL herbicidal rating,[3]; rate 0.0156 kg/ha,9.0
same,CHEAL herbicidal rating,[3]; rate 0.0313 kg/ha,9.0
same,CHEAL herbicidal rating,[3]; rate 0.0625 kg/ha,9.0
same,IPOHE herbicidal rating,[4]; rate 0.0156 kg/ha,9.0
same,IPOHE herbicidal rating,[4]; rate 0.0313 kg/ha,9.0
same,IPOHE herbicidal rating,[4]; rate 0.0625 kg/ha,9.0
same,ECHCG herbicidal rating,ECHCG (Barnyardgrass); rate 0.0156 kg/ha,0.0
same,ECHCG herbicidal rating,ECHCG (Barnyardgrass); rate 0.0313 kg/ha,0.0
same,ECHCG herbicidal rating,ECHCG (Barnyardgrass); rate 0.0625 kg/ha,0.0
same,GLXMAW herbicidal rating,[5]; rate 0.0156 kg/ha,5.5
same,GLXMAW herbicidal rating,[5]; rate 0.0313 kg/ha,5.5
same,GLXMAW herbicidal rating,[5]; rate 0.0625 kg/ha,6.0
same,TRZAWR herbicidal rating,[6]; rate 0.0156 kg/ha,1.5
same,TRZAWR herbicidal rating,[6]; rate 0.0313 kg/ha,2.5
same,TRZAWR herbicidal rating,[6]; rate 0.0625 kg/ha,3.5
same,Preemergence herbicidal rating ABUTH,ABUTH (Velvetleaf); rate 0.0156 kg/ha,0.0
same,Preemergence herbicidal rating ABUTH,ABUTH (Velvetleaf); rate 0.0313 kg/ha,0.0
same,Preemergence herbicidal rating ABUTH,ABUTH (Velvetleaf); rate 0.0625 kg/ha,0.0
same,Preemergence herbicidal rating ABUTH,ABUTH (Velvetleaf); rate 0.1250 kg/ha,6.0
same,Preemergence herbicidal rating ABUTH,ABUTH (Velvetleaf); rate 0.2500 kg/ha,9.0
same,Preemergence herbicidal rating AMBEL,"AMBEL (Ragweed, Common) [7]; rate 0.0156 kg/ha",0.0
same,Preemergence herbicidal rating AMBEL,"AMBEL (Ragweed, Common) [7]; rate 0.0313 kg/ha",0.0
same,Preemergence herbicidal rating AMBEL,"AMBEL (Ragweed, Common) [7]; rate 0.0625 kg/ha",0.0
same,Preemergence herbicidal rating AMBEL,"AMBEL (Ragweed, Common) [7]; rate 0.1250 kg/ha",5.0
same,Preemergence herbicidal rating AMBEL,"AMBEL (Ragweed, Common) [7]; rate 0.2500 kg/ha",5.0
same,Preemergence herbicidal rating CASOB,CASOB (Sicklepod) [8]; rate 0.0156 kg/ha,0.0
same,Preemergence herbicidal rating CASOB,CASOB (Sicklepod) [8]; rate 0.0313 kg/ha,0.0
same,Preemergence herbicidal rating CASOB,CASOB (Sicklepod) [8]; rate 0.0625 kg/ha,0.0
same,Preemergence herbicidal rating CASOB,CASOB (Sicklepod) [8]; rate 0.1250 kg/ha,0.0
same,Preemergence herbicidal rating CASOB,CASOB (Sicklepod) [8]; rate 0.2500 kg/ha,0.0
same,Preemergence herbicidal rating CHEAL,[9]; rate 0.0156 kg/ha,3.0
same,Preemergence herbicidal rating CHEAL,[9]; rate 0.0313 kg/ha,9.0
same,Preemergence herbicidal rating CHEAL,[9]; rate 0.0625 kg/ha,9.0
same,Preemergence herbicidal rating CHEAL,[9]; rate 0.1250 kg/ha,9.0
same,Preemergence herbicidal rating CHEAL,[9]; rate 0.2500 kg/ha,9.0
same,Preemergence herbicidal rating IPOHE,[10]; rate 0.0156 kg/ha,0.0
same,Preemergence herbicidal rating IPOHE,[10]; rate 0.0313 kg/ha,0.0
same,Preemergence herbicidal rating IPOHE,[10]; rate 0.0625 kg/ha,0.0
same,Preemergence herbicidal rating IPOHE,[10]; rate 0.1250 kg/ha,2.0
same,Preemergence herbicidal rating IPOHE,[10]; rate 0.2500 kg/ha,3.0
same,Preemergence herbicidal rating GLXMAW,[11]; rate 0.0156 kg/ha,0.0
same,Preemergence herbicidal rating GLXMAW,[11]; rate 0.0313 kg/ha,0.0
same,Preemergence herbicidal rating GLXMAW,[11]; rate 0.0625 kg/ha,0.0
same,Preemergence herbicidal rating GLXMAW,[11]; rate 0.1250 kg/ha,0.0
same,Preemergence herbicidal rating GLXMAW,[11]; rate 0.2500 kg/ha,1.0
same,Preemergence herbicidal rating ORYSAT,"ORYSAT (Rice, Tebonnet); rate 0.0156 kg/ha",0.0
same,Preemergence herbicidal rating ORYSAT,"ORYSAT (Rice, Tebonnet); rate 0.0313 kg/ha",0.0
same,Preemergence herbicidal rating ORYSAT,"ORYSAT (Rice, Tebonnet); rate 0.0625 kg/ha",0.0
same,Preemergence herbicidal rating ORYSAT,"ORYSAT (Rice, Tebonnet); rate 0.1250 kg/ha",0.0
same,Preemergence herbicidal rating ORYSAT,"ORYSAT (Rice, Tebonnet); rate 0.2500 kg/ha",0.0
same,Herbicidal rating MOOVA,MOOVA (Monochoria); 0.0313 kg/ha,9.0
same,Herbicidal rating MOOVA,MOOVA (Monochoria); 0.0625 kg/ha,9.0
same,Herbicidal rating MOOVA,MOOVA (Monochoria); 0.1250 kg/ha,9.0
same,Herbicidal rating MOOVA,MOOVA (Monochoria); 0.2500 kg/ha,9.0
same,Herbicidal rating SAGPY,[12]; 0.0313 kg/ha,0.0
same,Herbicidal rating SAGPY,[12]; 0.0625 kg/ha,4.0
same,Herbicidal rating SAGPY,[12]; 0.1250 kg/ha,5.0
same,Herbicidal rating SAGPY,[12]; 0.2500 kg/ha,7.0
